# How the values were obtained:
# [1] = In vitro plasma protein binding (ultrafiltration), mouse plasma; format: in vitro ADME, mouse (CD-1); details: CD-1, 10-10,000 ng/mL, mean±SD, read-out: mean unbound protein fraction (fu) in plasma
# Experimental: (§1) For human binding studies, plasma was obtained from the blood of three healthy male volunteers. Plasma was defrosted from storage at -20° C. before use, and pools of human plasma were used for all studies. Plasma from mouse, rat, and monkey was supplied by Harlan Laboratories Ltd. (Netherlands), Milan […], Switzerland) and Centre de Primatologie ULP (France), respectively. Protein binding was measured using an ultrafiltration method. To asses the suitability of ultrafiltration, the recovery and free permeation of [^14C]-labelled Compound 1 in PBS buffer were investigated. […] Three 1 mL aliquots per concentration were introduced into […]® devices and spun for 1 min at 2000 g (filtrate ≤500 μL). Samples of the spiked solutions, the filtrate and retentate were quantified by LSC; volumes were determined by weighing. The free permeation of the test compound in PBS was evaluated as follows: Ratio=[Cuf/Cr] with Cuf being the concentration in the ultrafiltrate (ng/mL) and Cr the concentration in the retentate (ng/mL). […] Specifically, concentrations of Compound 1 was determined by an UPLC-MS/MS method. […] Standards and quality control samples were prepared on the day of analysis by adding a 20 μL aliquot of an appropriate standard or QC spiking solution in methanol. A 25 μL aliquot of the internal standard (at 200 ng/mL in methanol) was added to each well except blanks. […] Samples were processed using protein precipitation. A 0.5 mL aliquot of an acetonitrile/ethanol/acetic acid mixture (90:10:0.1, v:v:v) was added to each sample; samples were mixed using a vortex mixer for 10 minutes, and centrifuged 3800 rpm (approximately 2500×g) for 10 min at 10° C. […] The ions monitored for Compound 1 was the parent [M+H]^+ ion at m/z 557.3.0; the product ions at m/z 453.4. […] The quantification was performed using Analyst software and Watson LIMS version 7.2.0.01. Concentrations in QC and study samples were calculated from the resulting peak area ratios and interpolation from the regression equations of the respective calibration curves. The lower limit of quantitation was 5.0 ng/mL for Compound 1.
# plasma proteins = assay: as above; format: in vitro ADME, mouse (CD-1); details: 10-10,000 ng/mL
# Experimental: as §1
# K. pneumoniae FQS = assay: In vitro MIC, 2010 surveillance isolates; format: cell-based, Klebsiella pneumoniae; details: N=1561
# [2] = test system: E. coli isolates, including ESBL+ and quinolone resistance phenotypes; assay: In vitro MIC, 2010 surveillance study of 4171 E. coli isolates; format: cell-based
# [3] = test system: E. coli (ATCC 25922) biofilm; assay: MBEC assay, planktonic adhesion to 6, 12, 24 hour biofilms under sub-MIC treatment; format: cell-based, Escherichia coli
# Experimental: The MBEC™ assay (formerly the Calgary biofilm device; Innovotech Inc., Canada) is a well-established high throughput assay for assessment of anti-biofilm activity of test agents in a 96-well format. Within this assay, the biofilm is formed on the plastic pegs of the plate lid. After inoculated media is introduced to the wells of the 96-well plate, the plate is placed in a shaking incubator to generate the necessary shear force for biofilm growth on the pegs. Following a suitable incubation time, the individual biofilms can be treated with varying concentrations of test agents (challenge plate). After the desired treatment time, the remaining biofilm-associated bacteria are retrieved from the pegs through sonication (recovery plate). Serial dilution and/or plating of the recovered bacterial suspension allow for the quantification of test agents' efficacy against pre-formed biofilms. Additionally, readout of the challenge plate from the biofilm treatment can be used to determine MIC values of test agents. The absence of growth in the recovery plate indicates complete biofilm eradication and the lowest concentration of a test agent that achieves this is designated as the minimum biofilm eradication concentration (MBEC). […]
# [4] = test system: E. coli (Carbapenem Resistant); assay: Broth microdilution MIC against UTI pathogens (Example 4); format: cell-based; details: Escherichia coli; 25 isolates
# Experimental: (§2) Antimicrobial activities of Compound 1 against a variety of common pathogens found in UTI were determined using a standard broth microdilution method (CLSI in Methods for Dilution Antimicrobial Susceptibility Tests for Bacteria That Grow Aerobically, Approved Standard M7-A8, Clinical and Laboratory Standards Institute, Wayne, Pa. (USA), 2011, incorporated herein by reference) with slight modifications.
# E. coli (ESBL phenotype) = assay: as above; format: cell-based; details: Escherichia coli; 2,743 isolates
# Experimental: as §2
# [5] = test system: E. coli (non-ESBL phenotype); assay: as above; format: cell-based; details: Escherichia coli; 10,696 isolates
# Experimental: as §2
# [6] = In vitro activity at pH 6.0 in media; format: cell-based
# [7] = Phase 1 studies, plasma pharmacokinetics (IV and oral)
smiles,measurement,setting,value
"CN(C)c1cc(CNCC(C)(C)C)c(O)c2c1C[C@H]1C[C@H]3[C@H](N(C)C)C(O)=C(C(N)=O)C(=O)[C@@]3(O)C(O)=C1C2=O [Compound 1, 9-[(2,2-dimethyl-propylamino)-methyl]-minocycline]",fraction unbound,[1],0.847 ± 0.0531
same,Mean (SD) Bound Fraction,plasma proteins,15.3 (5.31) %
same,mean unbound protein fraction (fu) in plasma,plasma proteins; mean±SD,84.7±5.3%
same,Cumulative % Inhibition at MIC,K. pneumoniae FQS; MIC 1 μg/ml,29.6%
same,Cumulative % Inhibition at MIC,K. pneumoniae FQS; MIC 2 μg/ml,79.3%
same,Cumulative % Inhibition at MIC,K. pneumoniae FQS; MIC 4 μg/ml,92.5%
same,Cumulative % Inhibition at MIC,K. pneumoniae FQS; MIC 8 μg/ml,95.9%
same,Cumulative % Inhibition at MIC,K. pneumoniae FQS; MIC 16 μg/ml,98.5%
same,Cumulative % Inhibition at MIC,"K. pneumoniae FQS; MIC ≤0.5 μg/ml, listed as head image P00011",2.4%
same,Cumulative % Inhibition at MIC,K. pneumoniae FQS; MIC ≥32 μg/ml,100%
same,isolates with an MIC value <4 μg/mL,[2],> 97%
same,reduction in total biofilm-associated bacteria relative to controls,"[3]; 24 hour biofilms, 4% of the MIC (0.046 μg/mL), planktonic bacteria present",reduced by about a log
same,adhesion of planktonic bacteria to biofilms,"[3]; sub-MIC concentrations, 6, 12, 24 hour biofilms",do not promote additional adhesion of planktonic bacteria
same,MIC50,[4],1 µg/mL
same,MIC90,[4],4 µg/mL
same,MIC50,E. coli (ESBL phenotype),1 µg/mL
same,MIC90,E. coli (ESBL phenotype),4 µg/mL
same,MIC50,[5],0.5 µg/mL
same,MIC90,[5],2 µg/mL
same,in vitro activity at pH 6.0 in media,[6],somewhat decreased
same,bioequivalence of tablet and IV dose,[7]; 300 mg dose of tablet,bioequivalent to a 100 mg IV dose
same,half-life,"[7]; human, in vivo",~18 h
same,Cmax,"[7]; human, in vivo, iv, 100 mg",~1800 ng/mL
same,"exposure based on plasma concentrations, higher at steady-state than after a single dose",[7]; steady state vs single dose,approximately 50%
same,steady state AUC (IV and oral) and Cmax (oral) relative to single IV or oral dose,[7]; steady state vs single dose,approximately 1.5 ×
